How the values were obtained:
Mer = molecular target: T1, Mer (Homo sapiens, UniProt Q12866); assay: LanthaScreen Eu kinase binding assay, Mer; details: Tracer 236
T1 construct: purchased Life Technologies
T1 sequence (Q12866 21-999): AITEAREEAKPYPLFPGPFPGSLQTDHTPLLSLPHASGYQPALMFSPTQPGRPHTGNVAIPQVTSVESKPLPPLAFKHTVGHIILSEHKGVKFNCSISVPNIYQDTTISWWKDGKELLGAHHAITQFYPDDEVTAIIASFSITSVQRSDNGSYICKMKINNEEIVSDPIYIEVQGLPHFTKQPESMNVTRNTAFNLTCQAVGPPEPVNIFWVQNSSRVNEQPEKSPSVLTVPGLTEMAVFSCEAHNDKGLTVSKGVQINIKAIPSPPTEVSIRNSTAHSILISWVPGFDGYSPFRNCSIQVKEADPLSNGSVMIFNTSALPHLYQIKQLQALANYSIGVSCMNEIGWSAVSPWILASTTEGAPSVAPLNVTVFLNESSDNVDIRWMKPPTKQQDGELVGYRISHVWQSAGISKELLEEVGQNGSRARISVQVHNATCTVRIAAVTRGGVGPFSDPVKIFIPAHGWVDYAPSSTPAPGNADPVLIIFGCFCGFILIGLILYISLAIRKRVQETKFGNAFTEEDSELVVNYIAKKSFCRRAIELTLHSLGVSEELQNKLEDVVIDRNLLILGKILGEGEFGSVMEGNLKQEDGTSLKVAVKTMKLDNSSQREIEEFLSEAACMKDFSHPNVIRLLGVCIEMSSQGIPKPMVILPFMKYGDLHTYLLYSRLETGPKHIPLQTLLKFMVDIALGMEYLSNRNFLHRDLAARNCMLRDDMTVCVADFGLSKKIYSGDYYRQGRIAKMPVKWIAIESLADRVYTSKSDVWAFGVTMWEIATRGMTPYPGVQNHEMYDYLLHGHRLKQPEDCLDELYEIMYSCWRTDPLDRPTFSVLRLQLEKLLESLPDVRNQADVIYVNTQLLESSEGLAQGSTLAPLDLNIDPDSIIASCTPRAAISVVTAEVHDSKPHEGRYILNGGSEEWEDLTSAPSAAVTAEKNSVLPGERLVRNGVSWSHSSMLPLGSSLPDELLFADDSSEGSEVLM

Met = molecular target: T2, Met (Homo sapiens, UniProt P08581); assay: LanthaScreen Eu kinase binding assay, Met; details: Tracer 236, read-out: cMet kinase binding activity (Kd)
T2 construct: purchased Life Technologies
T2 sequence (P08581 25-1390): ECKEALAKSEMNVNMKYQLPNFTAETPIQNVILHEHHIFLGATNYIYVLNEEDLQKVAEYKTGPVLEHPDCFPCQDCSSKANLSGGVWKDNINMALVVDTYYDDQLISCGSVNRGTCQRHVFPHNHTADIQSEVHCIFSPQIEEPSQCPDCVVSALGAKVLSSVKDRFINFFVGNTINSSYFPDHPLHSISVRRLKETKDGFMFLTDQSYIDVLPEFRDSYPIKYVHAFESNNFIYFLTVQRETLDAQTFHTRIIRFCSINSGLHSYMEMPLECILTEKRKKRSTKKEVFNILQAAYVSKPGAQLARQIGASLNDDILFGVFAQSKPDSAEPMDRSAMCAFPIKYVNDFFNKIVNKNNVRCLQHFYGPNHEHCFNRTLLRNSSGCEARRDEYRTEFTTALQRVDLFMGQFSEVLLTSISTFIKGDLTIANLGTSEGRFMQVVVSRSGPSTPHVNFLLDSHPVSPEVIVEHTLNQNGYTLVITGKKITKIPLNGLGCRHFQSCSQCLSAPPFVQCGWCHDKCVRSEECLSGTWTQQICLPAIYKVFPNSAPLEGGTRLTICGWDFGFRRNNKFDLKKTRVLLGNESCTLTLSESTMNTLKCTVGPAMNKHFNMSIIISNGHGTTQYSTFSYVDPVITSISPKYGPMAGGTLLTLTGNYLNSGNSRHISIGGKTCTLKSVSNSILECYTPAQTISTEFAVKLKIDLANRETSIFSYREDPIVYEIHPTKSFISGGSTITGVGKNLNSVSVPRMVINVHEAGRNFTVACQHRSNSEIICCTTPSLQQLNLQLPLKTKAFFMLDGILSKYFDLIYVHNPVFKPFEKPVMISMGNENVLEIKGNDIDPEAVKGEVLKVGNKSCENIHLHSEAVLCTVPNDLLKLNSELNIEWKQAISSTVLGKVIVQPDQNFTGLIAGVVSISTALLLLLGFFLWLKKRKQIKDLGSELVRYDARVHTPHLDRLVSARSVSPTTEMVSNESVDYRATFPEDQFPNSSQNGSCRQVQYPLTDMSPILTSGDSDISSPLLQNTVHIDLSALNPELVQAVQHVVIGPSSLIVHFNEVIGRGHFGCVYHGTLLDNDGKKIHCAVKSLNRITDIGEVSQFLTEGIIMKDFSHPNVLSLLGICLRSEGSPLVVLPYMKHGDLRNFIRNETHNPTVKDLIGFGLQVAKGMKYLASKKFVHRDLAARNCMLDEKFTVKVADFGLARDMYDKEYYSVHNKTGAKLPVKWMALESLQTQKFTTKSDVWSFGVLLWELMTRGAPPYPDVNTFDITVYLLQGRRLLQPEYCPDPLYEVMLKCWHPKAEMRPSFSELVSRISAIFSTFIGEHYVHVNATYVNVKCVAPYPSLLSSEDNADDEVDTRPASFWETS

[1] = tested on: Axl phosphorylation in transiently transfected HEK293T cells; assay: Cellular Axl phosphorylation assay; assay type: cell-based; details: Homo sapiens, HEK-293T; HEK293T cells transfected with Axl, 1 hour compound treatment, Phospho-Axl vs Total-Axl
Procedure, shortened: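 HEK293T cells transiently transfected with Axl (empty pcDNA_DEST_40 vector as minimum control) were treated with compound in DMSO for 1 h, then lysed. Total and phospho-Axl in lysates were measured by Mesoscale electrochemiluminescence immunoassay. IC50 was taken relative to the DMSO vehicle and empty-vector controls.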

Compound	Kd (Mer)	Kd (Met)	IC50 [1]
CCOc1cn(-c2ccco2)nc1C(=O)Nc1ccc(Oc2ccnc3cc(OC)c(OC)cc23)cn1 [Compound 57]	< 100 nM	< 100 nM	< 100 nM
COc1cc2nccc(Oc3ccc(NC(=O)c4nn(-c5cnc(Cl)cn5)cc4OCC(F)(F)F)nc3)c2cc1OC [Compound 236]	< 100 nM	< 100 nM	< 100 nM
CCOc1cn(-c2cnccc2CN(C)C)nc1C(=O)Nc1ccc(Oc2ccnc3cc(OC)c(OC)cc23)cn1 [Compound 73]	< 100 nM	100 to 1000 nM	< 100 nM
CCOc1cn(-c2cnsc2)nc1C(=O)Nc1ccc(Oc2ccnc3cc(OC)c(OC)cc23)cn1 [Compound 39]	< 100 nM	< 100 nM	< 100 nM
CCOc1cn(-c2nccnc2C(C)(O)CO)nc1C(=O)Nc1ccc(Oc2ccnc3cc(OC)c(OC)cc23)cc1F (stereo not drawn) [Compound 229]	< 100 nM	< 100 nM	< 100 nM
CCOc1cn(-c2cnccc2CO)nc1C(=O)Nc1ccc(Oc2ccnc3cc(OC)c(OC(F)(F)F)cc23)cn1 [Compound 233]	< 100 nM	≥ 1000 nM	< 100 nM
CCOc1cn(-c2ccoc2)nc1C(=O)Nc1ccc(Oc2ccnc3cc(OC)c(OC)cc23)cn1 [Compound 33]	< 100 nM	< 100 nM	< 100 nM
CCOc1cn(-c2ccncc2C)nc1C(=O)Nc1ccc(Oc2ccnc3cc(OC)c(OC)cc23)cn1 [Compound 34]	< 100 nM	< 100 nM	< 100 nM
CCOc1cn(C2CCCN(C(N)=O)C2)nc1C(=O)Nc1ccc(Oc2ccnc3cc(OC)c(OC)cc23)cc1F (stereo not drawn) [Compound 225]	< 100 nM	100 to 1000 nM	100 to 1000 nM
CCOc1cn(Cc2cnccc2C)nc1C(=O)Nc1ccc(Oc2ccnc3cc(OC)c(OC)cc23)cc1F [Compound 226]	< 100 nM	< 100 nM	< 100 nM
CCOc1cnn(C)c1C(=O)Nc1ccc(Oc2ccnc3cc(OC)c(OC)cc23)cn1 [Compound 30]	100 to 1000 nM	100 to 1000 nM	< 100 nM
CCOc1cn(-c2cnccc2CCN(C)C)nc1C(=O)Nc1ccc(Oc2ccnc3cc(OC)c(OC)cc23)cn1 [Compound 65]	< 100 nM	< 100 nM	< 100 nM
CCOc1cn(CCn2cccn2)nc1C(=O)Nc1ccc(Oc2ccnc3cc(OC)c(OC)cc23)cn1 [Compound 37]	< 100 nM	100 to 1000 nM	100 to 1000 nM
CCOc1cn(CC)nc1C(=O)Nc1ccc(Oc2ccnc3cc(OC)c(OC)cc23)cn1 [Compound 27]	< 100 nM	100 to 1000 nM	< 100 nM
CCOc1cn(-c2cc[nH]c2)nc1C(=O)Nc1ccc(Oc2ccnc3cc(OC)c(OC)cc23)cn1 [Compound 32]	< 100 nM	100 to 1000 nM	< 100 nM
CCOc1cn(-c2cnc(C#N)nc2)nc1C(=O)Nc1ccc(Oc2ccnc3cc(OC)c(OC)cc23)cn1 [Compound 55]	100 to 1000 nM	100 to 1000 nM	< 100 nM
CCOc1cn(CC(C)=O)nc1C(=O)Nc1ccc(Oc2ccnc3cc(OC)c(OC)cc23)cn1 [Compound 66]	< 100 nM	100 to 1000 nM	< 100 nM
CCOc1cn(-c2cnccc2CO)nc1C(=O)Nc1ccc(Oc2ccnc3cc(OC(C)C)c(OC)cc23)cc1F [Compound 231]	< 100 nM	100 to 1000 nM	< 100 nM
COc1cc2nccc(Oc3ccc(NC(=O)c4nn(-c5cccnc5)cc4OCC4CC4)nc3)c2cc1OC(F)(F)F [Compound 239]	100 to 1000 nM	100 to 1000 nM	< 100 nM
CCOc1cn(-c2cnc(N)nc2)nc1C(=O)Nc1ccc(Oc2ccnc3cc(OC(C)C)c(OC)cc23)cc1F [Compound 230]	< 100 nM	≥ 1000 nM	< 100 nM
CCOc1cn(-c2cccnc2Cl)nc1C(=O)Nc1ccc(Oc2ccnc3cc(OC)c(OC)cc23)cn1 [Compound 19]	< 100 nM	< 100 nM	< 100 nM
CCOc1cn(-c2ccc(OC)cc2)nc1C(=O)Nc1ccc(Oc2ccnc3cc(OC)c(OC)cc23)cn1 [Compound 1]	< 100 nM	< 100 nM	< 100 nM
CCOc1oc(-c2cccnc2)nc1C(=O)Nc1ccc(Oc2ccnc3cc(OC)c(OC)cc23)cn1 [Compound 44]	< 100 nM	< 100 nM	< 100 nM

Further lines, with some results ahead:

Kd (Mer)	Kd (Met)	Compound	IC50 [1]
< 100 nM	< 100 nM	COc1cc2c(Oc3ccc(NC(=O)c4nn(-c5cnc(N)cn5)cc4OCC(F)(F)F)nc3)ccnc2cc1OC(C)C [Compound 253]	< 100 nM
100 to 1000 nM	100 to 1000 nM	COc1cc2nccc(Oc3ccc(NC(=O)c4nn(-c5ccc(F)cc5C5CCCC5)cc4OCC4CC4)nc3)c2cc1OC [Compound 270]	< 100 nM
< 100 nM	≥ 1000 nM	COc1cc2nccc(Oc3ccc(NC(=O)c4nn(-c5cnc(N)nc5)cc4OC(F)F)nc3)c2cc1OC [Compound 254]	< 100 nM
< 100 nM	< 100 nM	COc1cc2nccc(Oc3ccc(NC(=O)c4nn(-c5ccc(F)cc5C)cc4OCC4CC4)nc3)c2cc1OC [Compound 258]	< 100 nM
≥ 1000 nM	≥ 1000 nM	CCOc1cn(-c2cnc(N)nc2)nc1C(=O)Nc1ccc(Oc2ccnc3cc(OC)c(OC(F)(F)F)cc23)cc1F [Compound 242]	100 to 1000 nM
< 100 nM	< 100 nM	COc1cc2nccc(Oc3ccc(NC(=O)c4nn(-c5cnc(N)nc5)cc4OCC4CC4)nc3)c2cc1OC [Compound 240]	< 100 nM
< 100 nM	100 to 1000 nM	COc1cc2nccc(Oc3ccc(NC(=O)c4nn(-c5cnc(N)nc5)cc4OCC4COC4)nc3)c2cc1OC [Compound 269]	< 100 nM
< 100 nM	< 100 nM	COc1cc2nccc(Oc3ccc(NC(=O)c4nn(-c5ccc(F)cc5F)cc4OCC(F)(F)F)nc3)c2cc1OC [Compound 268]	< 100 nM
< 100 nM	100 to 1000 nM	COc1cc2nccc(Oc3ccc(NC(=O)c4nn(-c5ccc(F)cc5Oc5ccccc5)cc4OCC4CC4)nc3)c2cc1OC [Compound 272]	< 100 nM
≥ 1000 nM	≥ 1000 nM	COc1cc2nccc(Oc3ccc(NC(=O)c4nn(-c5cnc(N)nc5)cc4OCC4CNC4)nc3)c2cc1OC [Compound 265]	≥ 1000 nM
< 100 nM	100 to 1000 nM	COc1cc2nccc(Oc3ccc(NC(=O)c4nn(-c5ccc(F)cc5C(C)=O)cc4OCC4CC4)nc3)c2cc1OC [Compound 273]	< 100 nM
< 100 nM	< 100 nM	COc1cc2nccc(Oc3ccc(NC(=O)c4nn(-c5ccc(F)cc5OC)cc4OCC4CC4)nc3)c2cc1OC [Compound 264]	< 100 nM
< 100 nM	< 100 nM	COc1cc2nccc(Oc3ccc(NC(=O)c4nn(-c5ccc(F)cc5Cl)cc4OCC4CC4)nc3)c2cc1OC [Compound 263]	< 100 nM
< 100 nM	< 100 nM	COc1cc2nccc(Oc3ccc(NC(=O)c4nn(-c5cnc(N)nc5)cc4OCC(F)(F)F)c(F)c3)c2cc1OC [Compound 259]	< 100 nM

From patent US10934274B2, “Quinoline derivatives as TAM RTK inhibitors” (Qurient Co., Ltd., priority 2015, dated 2021)
